Patent publication US20150105252A1, “SUBSTITUTED PYRAZOLES AS HERBICIDES” (E I DU PONT DE NEMOURS AND COMPANY, priority 2013, published 2015)

Assays:
[1] = test system: lambsquarters; assay: Test C preemergence; format: in vivo, Chenopodium album; conditions: preemergence; for Plant response rating, Lambsquarters: 125 g ai/ha, scale 0 to 100, 0 = no effect, 100 = complete control
In short: (§1)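 Pre- and postemergence greenhouse screen; vehicle was a non-phytotoxic solvent mix with surfactant. Preemergence: treatment applied right after sowing into loam and sand. Postemergence: treated at 1–4 leaves. Visual rating at 13–15 days, 100 = complete control.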

[2] = test system: velvetleaf; assay: Test C postemergence; format: in vivo, Abutilon theophrasti; conditions: postemergence; for Plant response rating, Velvetleaf: 250 g ai/ha, scale 0 to 100 (0 no effect, 100 complete control)
In short: as §1

[3] = test system: morningglory; assay: Test C postemergence; format: in vivo, Ipomoea coccinea; conditions: for Plant response rating (scale of 0 to 100 where 0 is no effect and 100 is complete control), Morningglory: Postemergence, 31 g ai/ha, visually evaluated after 13 to 15 days; for Morningglory plant response rating / Plant response rating, Morningglory: postemergence; for Morningglory plant response rating: 62 g ai/ha, scale 0 to 100
In short: as §1

[4] = test system: kochia; assay: Test C postemergence; format: in vivo, Kochia scoparia; conditions: for Plant response rating (scale of 0 to 100 where 0 is no effect and 100 is complete control), Kochia: Postemergence, 31 g ai/ha, visually evaluated after 13 to 15 days; for Kochia plant response rating / Plant response rating, Kochia: postemergence; for Kochia plant response rating: 62 g ai/ha, scale 0 to 100
In short: as §1

[5] = test system: pigweed; assay: Test C postemergence; format: in vivo, Amaranthus retroflexus; conditions: postemergence; for Pigweed plant response rating: 62 g ai/ha, scale 0 to 100
In short: as §1

[6] = test system: waterhemp; assay: Test C postemergence; format: in vivo, Amaranthus rudis; conditions: postemergence, 250 g ai/ha; scale 0 to 100 (0 no effect, 100 complete control)
In short: as §1

[7] = test system: barnyardgrass; assay: Test C postemergence; format: in vivo, Echinochloa crus-galli; conditions: for Plant response rating (scale of 0 to 100 where 0 is no effect and 100 is complete control), Barnyardgrass: Postemergence, 31 g ai/ha, visually evaluated after 13 to 15 days; for Barnyardgrass plant response rating / Plant response rating, Barnyardgrass: postemergence; for Barnyardgrass plant response rating: 62 g ai/ha, scale 0 to 100
In short: as §1

[8] = test system: chickweed; assay: Test C postemergence; format: in vivo, Stellaria media; conditions: for Plant response rating (scale of 0 to 100 where 0 is no effect and 100 is complete control), Chickweed: Postemergence, 31 g ai/ha, visually evaluated after 13 to 15 days; for Chickweed plant response rating / Plant response rating, Chickweed: postemergence; for Chickweed plant response rating: 62 g ai/ha, scale 0 to 100
In short: as §1

[9] = test system: crabgrass, large; assay: Test C postemergence; format: in vivo, Digitaria sanguinalis; conditions: for Plant response rating (scale of 0 to 100 where 0 is no effect and 100 is complete control), Crabgrass, Large: Postemergence, 31 g ai/ha, visually evaluated after 13 to 15 days; for Crabgrass, Large plant response rating / Plant response rating, Crabgrass, Large: postemergence; for Crabgrass, Large plant response rating: 62 g ai/ha, scale 0 to 100
In short: as §1

[10] = test system: galium; assay: Test C postemergence; format: in vivo, Galium aparine; conditions: for Plant response rating (scale of 0 to 100 where 0 is no effect and 100 is complete control), Galium: Postemergence, 31 g ai/ha, visually evaluated after 13 to 15 days; for Galium plant response rating / Plant response rating, Galium: postemergence; for Galium plant response rating: 62 g ai/ha, scale 0 to 100
In short: as §1

[11] = test system: oat, wild; assay: Test C postemergence; format: in vivo, Avena fatua; conditions: for Plant response rating (scale of 0 to 100 where 0 is no effect and 100 is complete control), Oat, Wild: Postemergence, 31 g ai/ha, visually evaluated after 13 to 15 days; for Oat, Wild plant response rating / Plant response rating, Oat, Wild: postemergence; for Oat, Wild plant response rating: 62 g ai/ha, scale 0 to 100
In short: as §1

[12] = test system: wheat; assay: Test C postemergence; format: in vivo, Triticum aestivum; conditions: postemergence; for Plant response rating, Wheat: 250 g ai/ha, scale 0 to 100 (0 no effect, 100 complete control)
In short: as §1

[13] = test system: blackgrass; assay: Test C postemergence; format: in vivo, Alopecurus myosuroides; conditions: for Plant response rating (scale of 0 to 100 where 0 is no effect and 100 is complete control), Blackgrass: Postemergence, 31 g ai/ha, visually evaluated after 13 to 15 days; for Blackgrass plant response rating / Plant response rating, Blackgrass: postemergence; for Blackgrass plant response rating: 62 g ai/ha, scale 0 to 100
In short: as §1

[14] = test system: lambsquarters; assay: Test C postemergence; format: in vivo, Chenopodium album; conditions: for Plant response rating (scale of 0 to 100 where 0 is no effect and 100 is complete control), Lambsquarters: Postemergence, 31 g ai/ha, visually evaluated after 13 to 15 days; for Lambsquarters plant response rating / Plant response rating, Lambsquarters: postemergence; for Lambsquarters plant response rating: 62 g ai/ha, scale 0 to 100
In short: as §1

[15] = 31 g ai/ha, visual rating, scale 0 to 100 (0 no effect, 100 complete control), 13 to 15 days
[16] = 62 g ai/ha, scale 0 to 100 (0 no effect, 100 complete control), 13 to 15 days
[17] = 250 g ai/ha, scale 0 to 100, 0 is no effect, 100 is complete control
[18] = 250 g ai/ha, scale 0 to 100 (0 no effect, 100 complete control)
[19] = 125 g ai/ha, scale 0 to 100, 0 no effect, 100 complete control

SMILES: CCOc1cc(C(=O)NC(C)C)nn1Cc1ccnc(C(F)(F)F)c1 [Compound 188]
- Lambsquarters plant response rating [1, 15]: 100
- Lambsquarters plant response rating [1, 16]: 100
- Plant response rating, Lambsquarters ([1]; 13 to 15 days): 100
- Lambsquarters plant response rating [1, 17]: 100
- Plant response rating, Velvetleaf [2]: 80
- Velvetleaf plant response rating ([2]; scale 0 to 100): 60
- Plant response rating (scale of 0 to 100 where 0 is no effect and 100 is complete control), Morningglory [3]: 85
- Morningglory plant response rating [3]: 90
- Plant response rating, Morningglory [3, 18]: 98
- Plant response rating, Morningglory [3, 19]: 98
- Plant response rating (scale of 0 to 100 where 0 is no effect and 100 is complete control), Kochia [4]: 90
- Kochia plant response rating [4]: 90
- Plant response rating, Kochia [4, 18]: 90
- Plant response rating, Kochia [4, 19]: 90
- Pigweed plant response rating [5]: 75
- Plant response rating, Pigweed [5, 18]: 85
- Plant response rating, Pigweed [5, 19]: 80
- Plant response rating, Waterhemp [6]: 95
- Plant response rating (scale of 0 to 100 where 0 is no effect and 100 is complete control), Barnyardgrass [7]: 5
- Barnyardgrass plant response rating [7]: 15
- Plant response rating, Barnyardgrass [7, 18]: 65
- Plant response rating, Barnyardgrass [7, 19]: 30
- Plant response rating (scale of 0 to 100 where 0 is no effect and 100 is complete control), Chickweed [8]: 70
- Chickweed plant response rating [8]: 85
- Plant response rating, Chickweed [8, 18]: 98
- Plant response rating, Chickweed [8, 19]: 80
- Plant response rating (scale of 0 to 100 where 0 is no effect and 100 is complete control), Crabgrass, Large [9]: 5
- Crabgrass, Large plant response rating [9]: 55
- Plant response rating, Crabgrass, Large [9, 18]: 95
- Plant response rating, Crabgrass, Large [9, 19]: 70
- Plant response rating (scale of 0 to 100 where 0 is no effect and 100 is complete control), Galium [10]: 80
- Galium plant response rating [10]: 80
- Plant response rating, Galium [10, 18]: 90
- Plant response rating, Galium [10, 19]: 90
- Plant response rating (scale of 0 to 100 where 0 is no effect and 100 is complete control), Oat, Wild [11]: 15
- Oat, Wild plant response rating [11]: 10
- Plant response rating, Oat, Wild [11, 18]: 85
- Plant response rating, Oat, Wild [11, 19]: 60
- Plant response rating, Wheat [12]: 40
- Wheat plant response rating ([12]; scale 0 to 100): 15
- Plant response rating (scale of 0 to 100 where 0 is no effect and 100 is complete control), Blackgrass [13]: 5
- Blackgrass plant response rating [13]: 5
- Plant response rating, Blackgrass [13, 18]: 70
- Plant response rating, Blackgrass [13, 19]: 40
- Plant response rating (scale of 0 to 100 where 0 is no effect and 100 is complete control), Lambsquarters [14]: 60
- Lambsquarters plant response rating [14]: 75
- Plant response rating, Lambsquarters [14, 18]: 95
- Plant response rating, Lambsquarters [14, 19]: 90

SMILES: CCOc1cc(C(=O)NC2CC2)nn1Cc1ccnc(C(F)(F)F)c1 [Compound 189]
- Lambsquarters plant response rating [1, 15]: 98
- Lambsquarters plant response rating [1, 16]: 100
- Plant response rating, Lambsquarters ([1]; 13 to 15 days): 100
- Lambsquarters plant response rating [1, 17]: 100
- Plant response rating, Velvetleaf [2]: 75
- Plant response rating (scale of 0 to 100 where 0 is no effect and 100 is complete control), Morningglory [3]: 75
- Morningglory plant response rating [3]: 80
- Plant response rating, Morningglory [3, 18]: 98
- Plant response rating, Morningglory [3, 19]: 95
- Plant response rating (scale of 0 to 100 where 0 is no effect and 100 is complete control), Kochia [4]: 85
- Kochia plant response rating [4]: 90
- Plant response rating, Kochia [4, 18]: 90
- Plant response rating, Kochia [4, 19]: 90
- Pigweed plant response rating [5]: 75
- Plant response rating, Pigweed [5, 18]: 90
- Plant response rating, Pigweed [5, 19]: 85
- Plant response rating, Waterhemp [6]: 90
- Plant response rating (scale of 0 to 100 where 0 is no effect and 100 is complete control), Barnyardgrass [7]: 5
- Barnyardgrass plant response rating [7]: 5
- Plant response rating, Barnyardgrass [7, 18]: 55
- Plant response rating, Barnyardgrass [7, 19]: 20
- Plant response rating (scale of 0 to 100 where 0 is no effect and 100 is complete control), Chickweed [8]: 80
- Chickweed plant response rating [8]: 80
- Plant response rating, Chickweed [8, 18]: 90
- Plant response rating, Chickweed [8, 19]: 85
- Plant response rating (scale of 0 to 100 where 0 is no effect and 100 is complete control), Crabgrass, Large [9]: 5
- Crabgrass, Large plant response rating [9]: 5
- Plant response rating, Crabgrass, Large [9, 18]: 90
- Plant response rating, Crabgrass, Large [9, 19]: 65
- Plant response rating (scale of 0 to 100 where 0 is no effect and 100 is complete control), Galium [10]: 80
- Galium plant response rating [10]: 80
- Plant response rating, Galium [10, 18]: 90
- Plant response rating, Galium [10, 19]: 90
- Plant response rating (scale of 0 to 100 where 0 is no effect and 100 is complete control), Oat, Wild [11]: 10
- Oat, Wild plant response rating [11]: 15
- Plant response rating, Oat, Wild [11, 18]: 60
- Plant response rating, Oat, Wild [11, 19]: 30
- Plant response rating, Wheat [12]: 15
- Plant response rating (scale of 0 to 100 where 0 is no effect and 100 is complete control), Blackgrass [13]: 5
- Blackgrass plant response rating [13]: 5
- Plant response rating, Blackgrass [13, 18]: 50
- Plant response rating, Blackgrass [13, 19]: 10
- Plant response rating (scale of 0 to 100 where 0 is no effect and 100 is complete control), Lambsquarters [14]: 60
- Lambsquarters plant response rating [14]: 70
- Plant response rating, Lambsquarters [14, 18]: 85
- Plant response rating, Lambsquarters [14, 19]: 95
